Data published in US20110280940A1, “Di-Vanilloyl And Tri-Vanilloyl Derivatives For Use In Anti-Cancer Therapy” (priority 2008, published 2011).
pIC50: −log10 of the molar value.

Columns and labels:
Assay type in all cases: biochemical
DYRK1A kinase = target: T1, DYRK1A kinase (Homo sapiens, UniProt Q13627); test: Radiometric protein kinase assay (33 PanQinase), DYRK-1A; conditions: for pIC50: dose-response 0-100 μM, n=3, read-out: IC50: Concentration of drug needed in order to inhibit kinase activity by 50%, DYRK-1A; for inhibition at 57 µM: read-out: inhibition of DYRK-1A activity
T1 construct: made in house
Procedure: (§1) The kinase inhibition profile of DLT11 at 20 μM was determined using 250 protein kinases. […] A radiometric protein kinase assay (33 PanQinase®Activity Assay) was used for measuring the kinase activity of 250 protein kinases. All kinase assays were performed in 96-well flashPlates™ from Perkin Elmer (Boston, Mass., USA) in a 50 μl reaction volume. The reaction cocktail was pipetted in 4 steps in the following order: • 10 μl of non-radioactive ATP solution (in H2O) • 25 μl of assay buffer/[γ-33P]-ATP mixture • 5 μl of test sample in 10% DMSO • 10 μl of enzyme/substrate mixture
as §1, with “of DLT95-Cl” for “of DLT11”, “using 255” for “using 250”
(§2) The assay for all enzymes contained 60 mM HEPES-NaOH, pH 7.5, 3 mM MgCl2, 3 mM MnCl2, 3 μM Na-orthovanadate, 1.2 mM DTT, 50 μg/ml PEG20000, 1 μM ATP/[γ-33P]-ATP (approx. […] per well), protein kinase, and substrate. All PKC assays (except the PKC-mu and the PKC-nu assay) additionally contained 1 mM CaCl2, 4 mM EDTA, 5 μg/ml Phosphatidylserine and 1 μg/ml 1,2-Dioleyl-glycerol. The MYLK2, CAMK1D, CAMK2A, CAMK2B, CAMK2D, CAMK4, CAMKK2, DAPK2 and EEF2K assays additionally contained 1 μg/ml Calmodulin and 0.5 mM CaCl2. The PRKG1 and PRKG2 assays additionally contained 1 μM cGMP.
(§3) The protein kinases were expressed either in Sf9 insect cells or in E. coli as recombinant GST-fusion proteins or as His-tagged proteins. All kinases were produced from human cDNAs. Kinases were purified by affinity chromatography using either GSH-agarose (Sigma) or Ni-NTH-agarose (Qiagen). The purity of the protein kinases was examined by SDS-PAGE/coomassie staining. The identity of the protein kinases was checked by mass spectroscopy.
(§4) The reaction cocktails were incubated at 30° C. for 60 minutes. The reaction was stopped with 50 μl of 2% (v/v) H3PO4, plates were aspirated and washed two times with 200 μl 0.9% (w/v) NaCl. All assays were performed with a BeckmanCoulter Biomek 2000/SL robotic system.
(§5) Incorporation of ^33Pi (counting of “cpm”) was determined with a microplate scintillation counter (Microbeta, Wallac).
(§6) For each kinase, the median value of the cpm of three wells with complete reaction cocktails, but without kinase, was defined as “low control” […]. This value reflects unspecific binding of radioactivity to the plate in the absence of protein kinase but in the presence of the substrate. Additionally, for each kinase the median value of the cpm of three other wells with the complete reaction cocktail, but without any compound, was taken as the “high control”, i.e. full activity in the absence of any inhibitor […]. The difference between high and low control of was taken as 100% activity for each kinase. As part of the data evaluation the low control value of each kinase was subtracted from the high control value as well as from their corresponding “compound values”. The residual activity (in %) for each compound well was calculated by using the following formula: Res. Activity (%)=100×[(cpm of compound−low control)/(high control−low control)]

Aurora A kinase = target: T2, Aurora A kinase (Homo sapiens, UniProt O14965); test: Radiometric protein kinase assay (33 PanQinase), Aurora A; conditions: for pIC50: dose-response 0-100 μM, n=3, read-out: IC50: Concentration of drug needed in order to inhibit kinase activity by 50%, AurA; for inhibition at 57 µM: read-out: inhibition of Aurora A activity
T2 construct: made in house
T2 sequence (O14965 1-403): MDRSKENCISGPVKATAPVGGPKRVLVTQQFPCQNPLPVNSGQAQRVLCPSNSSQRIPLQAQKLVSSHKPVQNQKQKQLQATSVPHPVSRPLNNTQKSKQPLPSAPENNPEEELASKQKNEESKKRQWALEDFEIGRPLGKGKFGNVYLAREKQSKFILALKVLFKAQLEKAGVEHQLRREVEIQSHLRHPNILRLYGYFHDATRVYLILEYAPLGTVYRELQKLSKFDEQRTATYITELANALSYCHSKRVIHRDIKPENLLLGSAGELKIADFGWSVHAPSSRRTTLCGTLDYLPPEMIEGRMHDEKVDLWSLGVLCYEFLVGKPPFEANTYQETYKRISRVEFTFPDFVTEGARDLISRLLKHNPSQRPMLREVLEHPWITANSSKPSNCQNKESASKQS
Procedure: (§7) Note that at a concentration of 20 μM of the DLT compounds, the activity of the three Aurora kinases is reduced by approximately 40-50%, whereas at concentrations of 50 μM, i.e. the concentration used in the anti-proliferation assays of example 2B, the activity of said kinases is reduced by 60-75%.
(§8) The kinase inhibition profile of DLT95-Cl at 20 μM was determined using 255 protein kinases. Residual activity values were measured by testing each compound at one concentration in duplicate in each kinase assay. A radiometric protein kinase assay (33 PanQinase®Activity Assay) was used for measuring the kinase activity of 250 protein kinases. All kinase assays were performed in 96-well flashPlates™ from Perkin Elmer (Boston, Mass., USA) in a 50 μl reaction volume. The reaction cocktail was pipetted in 4 steps in the following order: • 10 μl of non-radioactive ATP solution (in H2O) • 25 μl of assay buffer/[γ-33P]-ATP mixture • 5 μl of test sample in 10% DMSO • 10 μl of enzyme/substrate mixture
as §2, §3, §4, §5, §6

Aurora C kinase = target: T3, Aurora C kinase (Homo sapiens, UniProt Q9UQB9); test: Radiometric protein kinase assay (33 PanQinase), Aurora C; conditions: for pIC50: dose-response 0-100 μM, n=3, read-out: IC50: Concentration of drug needed in order to inhibit kinase activity by 50%, AurC; for inhibition at 57 µM: read-out: inhibition of Aurora C activity
T3 construct: made in house
T3 sequence (Q9UQB9 1-309): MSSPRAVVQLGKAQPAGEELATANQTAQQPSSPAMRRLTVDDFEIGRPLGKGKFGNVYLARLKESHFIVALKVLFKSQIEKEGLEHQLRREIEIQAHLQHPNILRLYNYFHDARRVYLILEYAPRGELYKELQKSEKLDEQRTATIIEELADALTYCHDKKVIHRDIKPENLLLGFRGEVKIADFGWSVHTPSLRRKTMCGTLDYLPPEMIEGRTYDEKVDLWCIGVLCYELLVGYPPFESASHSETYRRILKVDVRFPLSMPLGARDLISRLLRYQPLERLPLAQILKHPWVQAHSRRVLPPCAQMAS
Procedure: as §7, §8, §2, §3, §4, §5, §6

Structure (SMILES) | inhibition of Dyrk1A (DYRK1A kinase; 20 μM (FIG. 3)) | pIC50 (Aurora A kinase) | pIC50 (Aurora C kinase) | pIC50 (DYRK1A kinase) | inhibition at 57 µM (Aurora A kinase) | inhibition at 57 µM (Aurora C kinase) | inhibition at 57 µM (DYRK1A kinase)
COc1cc(C(=O)OCCCCCCOC(=O)c2ccc(O)c(OC)c2)ccc1O [DLT11, Hexane-1,6-diyl bis-(4-hydroxy-3-methoxybenzoate)] | 5% |  |  |  |  |  | 
COc1cc(C(=O)OCc2cc(COC(=O)c3ccc(O)c(OC)c3)cc(COC(=O)c3ccc(O)c(OC)c3)c2)ccc1O [DLT95, [3,5-bis[(4-hydroxy-3-methoxy-benzoyl)oxymethyl]phenyl]methyl 4-hydroxy-3-methoxy-benzoate] |  | 5.04 | 5.48 | < 4.00 |  |  | 
O=C(OCc1cc(COC(=O)c2ccc(O)c(Cl)c2)cc(COC(=O)c2ccc(O)c(Cl)c2)c1)c1ccc(O)c(Cl)c1 [DLT95-Cl, [3,5-bis[(4-hydroxy-3-chloro-benzoyl)oxymethyl]phenyl]methyl 4-hydroxy-3-chloro-benzoate] |  | 5.77 | 5.74 | 5.49 | ≥ 50% | ≥ 50% | ≥ 50%
O=C(OCc1cc(COC(=O)c2ccc(O)c(F)c2)cc(COC(=O)c2ccc(O)c(F)c2)c1)c1ccc(O)c(F)c1 [DLT95-F, [3,5-bis[(4-hydroxy-3-fluoro-benzoyl)oxymethyl]phenyl]methyl 4-hydroxy-3-fluoro-benzoate] |  | 5.49 | 5.33 | 5.15 | ≥ 50% | ≥ 50% | ≥ 50%
COc1cc(C(=O)O)ccc1O [vanillic acid, reference compound] |  | < 4.00 | < 4.00 | < 4.00 |  |  | 
